Experiment: log P by HPLC on a reversed-phase column (C 18), EEC Directive 79/831 Annex V.A8
Format: physicochemical
Conditions: 0.1% aqueous formic acid and acetonitrile
Procedure: In table 1, the log P values were determined in accordance with EEC Directive 79/831 Annex V.A8 by HPLC (High Performance Liquid Chromatography) on a reversed-phase column (C 18), using the method described below: Temperature: 40° C.; Mobile phases: 0.1% aqueous formic acid and acetonitrile; linear gradient from 10% acetonitrile to 90% acetonitrile. Calibration was carried out using unbranched alkan-2-ones (comprising 3 to 16 carbon atoms) with known log P values (determination of the log P values by the retention times using linear interpolation between two successive alkanones). lambda-max-values were determined using UV-spectra from 200 nm to 400 nm and the peak values of the chromatographic signals.

[1] = HPLC, reversed-phase column (C 18), 40° C., linear gradient 10% to 90% acetonitrile
[2] = HPLC reversed-phase C 18, 40° C., gradient 10% to 90% acetonitrile

Compound | logP [1] | also measured
CCC1(c2cc(Cl)ccc2CN(C(=O)c2cc(C)oc2C)C2CC2)CC1 [Example 1.071] | 5.34 | –
Cc1cc(C(=O)N(Cc2ccc(Cl)cc2C2(C)CC2)C2CC2)c(C(F)F)o1 [Example 1.008] | 4.98 | –
COCC1(c2ccc(C)cc2CN(C(=O)c2cn(C)nc2C(F)F)C2CC2)CC1 [Example 1.154] | – | logP [2]: 3.13
CCc1cc(C(=O)N(Cc2cc(C)ccc2C2(C)CC2)C2CC2)c(C)o1 [Example 1.051] | 5.25 | –
CCC1(c2cc(C(F)(F)F)ccc2CN(C(=O)c2cn(C)nc2C(F)F)C2CC2)CC1 [Example 1.077] | 4.36 | –
CCC1(c2cc(Cl)ccc2CN(C(=O)c2nn(C)nc2C(F)F)C2CC2)CC1 [Example 1.073] | 4.87 | –
Cn1nc(C(=O)N(Cc2ccc(Cl)cc2C2(C)CC2)C2CC2)c(C(F)F)n1 [Example 1.009] | 4.54 | –
CCC1(c2cc(C)ccc2CN(C(=O)c2cn(C)nc2C(F)F)C2CC2)CC1 [Example 1.074] | 4.16 | –
Cc1ccc(C2(C)CC2)c(CN(C(=O)c2cn(C)nc2C(F)(F)F)C2CC2)c1 [Example 1.037] | 4.16 | –
Cn1cc(C(=O)N(Cc2cccc(Cl)c2C2(C)CC2)C2CC2)c(C(F)F)n1 [Example 1.001] | 3.89 | –
Cc1cc(C(=O)N(Cc2ccc(Cl)cc2C2(C)CC2)C2CC2)c(C)o1 [Example 1.007] | 4.98 | –
Cc1nn(C)c(Cl)c1C(=O)N(Cc1cc(Br)ccc1C1(C)CC1)C1CC1 [Example 1.023] | 4.24 | –
Cc1ccc(C2(C)CC2)c(CN(C(=S)c2oc(C)nc2C(F)F)C2CC2)c1 [Example 1.053] | 4.92 | –
Cn1cc(C(=O)N(Cc2ccc(Cl)cc2C2(C)CC2)C2CC2)c(C(F)F)n1 [Example 1.010] | 3.96 | –
CCC1(c2cc(C)c(F)cc2CN(C(=O)c2c(C)nn(C)c2Cl)C2CC2)CC1 [Example 1.078] | 4.49 | –
Cc1ccc(C2(C)CC2)c(CN(C(=O)c2c(C(F)F)nn(C(C)(C)C)c2C(F)F)C2CC2)c1 [Example 1.039] | 5.35 | –
Cc1ccc(C2(C)CC2)c(CN(C(=O)c2ccoc2C(F)F)C2CC2)c1 [Example 1.043] | 4.35 | –
CCC1(c2cc(Cl)ccc2CN(C(=O)c2cc(C)oc2C(F)F)C2CC2)CC1 [Example 1.072] | 5.28 | –
Cc1ccc(C2(C)CC2)c(CN(C(=O)c2c(C)nn(C)c2Cl)C2CC2)c1 [Example 1.048] | 3.96 | –

Compound | logP [1] | also measured
Cn1cc(C(=O)N(Cc2cc(Cl)c(Cl)cc2C2(C)CC2)C2CC2)c(C(F)F)n1 [Example 1.163] | – | logP [2]: 4.28
CCC1(c2ccccc2CN(C(=O)c2cn(C)nc2C(F)F)C2CC2)CC1 [Example 1.067] | 3.79 | –
COCC1(c2ccc(C)cc2CN(C(=O)c2cc(C)oc2C)C2CC2)CC1 [Example 1.155] | – | logP [2]: 4.03
CCC1(c2cc(C)c(F)cc2CN(C(=O)c2nn(C)nc2C(F)F)C2CC2)CC1 [Example 1.079] | 4.85 | –
Cc1ccc(C2(C)CC2)c(CN(C(=O)c2c(C(F)(F)F)nn(C)c2Cl)C2CC2)c1 [Example 1.041] | 4.82 | –
Cc1nn(C)cc1C(=O)N(Cc1cccc(F)c1C1(C)CC1)C1CC1 [Example 1.004] | 2.98 | –
COc1cc(CN(C(=O)c2cn(C)nc2C(F)F)C2CC2)c(C2(C)CC2)cc1OC [Example 1.020] | 2.98 | –
C#CC1(c2ccc(C)cc2CN(C(=O)c2c(C)nn(C)c2F)C2CC2)CC1 [Example 1.065] | 3.21 | –
Cc1nn(C)c(F)c1C(=O)N(Cc1ccc(F)cc1C1(C)CC1)C1CC1 [Example 1.014] | 3.46 | –
Cc1cc(C(=O)N(Cc2cccc(Cl)c2C2(C)CC2)C2CC2)c(C)o1 [Example 1.002] | 4.92 | –
1-(2-formyl-4-methylphenyl)cyclopropanecarbonitrile [IV.16] | – | logP (Table 4, compounds of formula (IV), HPLC C 18, 40° C.): 2.08
Cn1cc(C(=S)N(Cc2cccc(F)c2C2(C)CC2)C2CC2)c(C(F)F)n1 [Example 1.006] | 4.04 | –
Cc1cc(C(=O)N(Cc2c(C3(C)CC3)ccc(C)c2F)C2CC2)c(C)o1 [Example 1.055] | 5.08 | –
Cc1nn(C)cc1C(=O)N(Cc1cc(Br)ccc1C1(C)CC1)C1CC1 [Example 1.026] | 3.44 | –
COCC1(c2ccc(C)cc2CN(C(=O)c2c(C)nn(C)c2Cl)C2CC2)CC1 [Example 1.158] | – | logP [2]: 3.19
Cn1cc(C(=O)N(Cc2cc(Cl)ccc2C2(C)CC2)C2CC2)c(C(F)F)n1 [Example 1.029] | 3.83 | –
CCC1(c2cc(C)c(F)cc2CN(C(=O)c2cc(C)oc2C(F)F)C2CC2)CC1 [Example 1.080] | 5.25 | –
Cc1ccc(CN(C(=O)c2c(C)nn(C)c2F)C2CC2)c(C2(C)CC2)c1 [Example 1.016] | 3.71 | –

Further lines, with some results ahead:

logP [1] | Compound | also measured
3.42 | Cc1ccc(C2(Cl)CC2)c(CN(C(=O)c2c(C)nn(C)c2F)C2CC2)c1 [Example 1.106] | –
4.27 | CCC1(c2ccc(C(F)(F)F)cc2CN(C(=O)c2cn(C)nc2C(F)F)C2CC2)CC1 [Example 1.085] | –
4.49 | Cc1ccc(C2(C(C)C)CC2)c(CN(C(=O)c2cn(C)nc2C(F)F)C2CC2)c1 [Example 1.123] | –
5.35 | CCC1(c2ccc(C)cc2CN(C(=O)c2c(OC(F)F)nn(C)c2C(F)(F)F)C2CC2)CC1 [Example 1.100] | –
3.21 | Cc1ccc(C2(C(F)F)CC2)c(CN(C(=O)c2c(C)nn(C)c2F)C2CC2)c1 [Example 1.139] | –
5.54 | Cc1ccc(C2(C(C)C)CC2)c(CN(C(=O)c2cc(C)oc2C(F)F)C2CC2)c1 [Example 1.120] | –
3.53 | CCOC1(c2ccc(C)cc2CN(C(=O)c2c(C)nn(C)c2F)C2CC2)CC1 [Example 1.127] | –
3.33 | Cc1nn(C)c(F)c1C(=O)N(Cc1cc(Cl)ccc1C1(C(F)F)CC1)C1CC1 [Example 1.136] | –
4.59 | CCCC1(c2ccc(C)cc2CN(C(=O)c2cn(C)nc2C(F)F)C2CC2)CC1 [Example 1.114] | –
3.00 | Cn1cc(C(=O)N(Cc2ccccc2C2(C(F)F)CC2)C2CC2)c(C(F)F)n1 [Example 1.132] | –
3.41 | Cn1cc(C(=O)N(Cc2ccccc2C2(C(F)(F)F)CC2)C2CC2)c(C(F)F)n1 [Example 1.145] | –
5.05 | Cc1ccc(C2(C3CC3)CC2)c(CN(C(=O)c2cc(C)oc2C)C2CC2)c1 [Example 1.109] | –
4.11 | Cc1ccc(C2(C3CC3)CC2)c(CN(C(=O)c2c(C)nn(C)c2F)C2CC2)c1 [Example 1.108] | –
3.60 | CCOC1(c2ccc(C)cc2CN(C(=O)c2cn(C)nc2C(F)F)C2CC2)CC1 [Example 1.128] | –
5.03 | CCC1(c2ccc(Cl)cc2CN(C(=O)c2c(OC(F)F)nn(C)c2Cl)C2CC2)CC1 [Example 1.090] | –
2.84 | CCC1(c2ccc(C)cc2CN(C(=O)c2c(OC(F)F)nn(C)c2Cl)C2CC2)CC1 [Example 1.101] | –
4.23 | Cn1cc(C(=S)N(Cc2cc(Cl)ccc2C2(C(F)(F)F)CC2)C2CC2)c(C(F)F)n1 [Example 1.149] | –
5.36 | CCC1(c2ccc(Cl)cc2CN(C(=O)c2c(OC(F)F)nn(C)c2C(F)(F)F)C2CC2)CC1 [Example 1.091] | –
4.26 | CCC1(c2cc(C)c(F)cc2CN(C(=O)c2c(C)nn(C)c2F)C2CC2)CC1 [Example 1.082] | –

logP [1] | Compound | also measured
4.36 | CCC1(c2ccc(C)cc2CN(C(=O)c2c(C)nn(C)c2Cl)C2CC2)CC1 [Example 1.096] | –
3.51 | Cc1ccc(C2(Cl)CC2)c(CN(C(=O)c2cn(C)nc2C(F)F)C2CC2)c1 [Example 1.105] | –
5.31 | CCC1(c2ccc(Cl)cc2CN(C(=O)c2cc(C)oc2C)C2CC2)CC1 [Example 1.088] | –
3.63 | CCC1(c2cccc(F)c2CN(C(=O)c2c(C)nn(C)c2F)C2CC2)CC1 [Example 1.103] | –
4.34 | CCC1(c2ccc(C(F)(F)F)cc2CN(C(=O)c2c(C)nn(C)c2F)C2CC2)CC1 [Example 1.084] | –
4.82 | Cc1cc(C(=O)N(Cc2cc(Cl)ccc2C2(C(F)(F)F)CC2)C2CC2)c(C)o1 [Example 1.148] | –
3.02 | CCOC1(c2ccc(C)cc2CN(C(=O)c2cn(C)nc2C)C2CC2)CC1 [Example 1.129] | –
4.80 | Cc1ccc(C2(C(C)C)CC2)c(CN(C(=O)c2c(C)nn(C)c2Cl)C2CC2)c1 [Example 1.119] | –
4.72 | CCC1(c2ccc(C)cc2CN(C(=O)c2c(OC(F)F)nn(C)c2F)C2CC2)CC1 [Example 1.098] | –
3.48 | Cn1cc(C(=O)N(Cc2cc(F)ccc2C2(C(F)(F)F)CC2)C2CC2)c(C(F)F)n1 [Example 1.150] | –
5.78 | CCCC1(c2cc(Cl)ccc2CN(C(=O)c2cc(C)oc2C(F)F)C2CC2)CC1 [Example 1.111] | –
4.24 | CCC1(c2cc(C)c(F)cc2CN(C(=O)c2cn(C)nc2C(F)F)C2CC2)CC1 [Example 1.081] | –
4.78 | CCC1(c2ccc(Cl)cc2CN(C(=O)c2c(OC(F)F)nn(C)c2F)C2CC2)CC1 [Example 1.089] | –
5.08 | CCCC1(c2ccc(C)cc2CN(C(=S)c2cn(C)nc2C(F)F)C2CC2)CC1 [Example 1.116] | –
3.37 | Cn1cc(C(=O)N(Cc2cc(Cl)ccc2C2(C(F)F)CC2)C2CC2)c(C(F)F)n1 [Example 1.135] | –
4.90 | Cc1ccc(C2(C(C)C)CC2)c(CN(C(=O)c2nn(C)cc2C(F)F)C2CC2)c1 [Example 1.117] | –
3.81 | Cc1ccc(C2(C(F)F)CC2)c(CN(C(=S)c2c(C)nn(C)c2F)C2CC2)c1 [Example 1.141] | –
3.09 | Cn1cc(C(=O)N(Cc2cc(F)ccc2C2(C(F)F)CC2)C2CC2)c(C(F)F)n1 [Example 1.137] | –
